Legend:
[1] = system: Landrace pig bladder strips; test: In vitro functional model: field-stimulated bladder tissue strips; conditions: dose dependent, concentration range 10^−9 to 10^−5 M, control agonist
Description: Compounds were evaluated for functional potassium channel opening activity using tissue strips obtained from Landrace pig bladders. Landrace pig bladders were obtained from female Landrace pigs of 9-30 kg. Landrace pigs were euthanized with an intraperitoneal injection of pentobarbital solution, Somlethal®, J. A. Webster Inc., Sterling Mass. The entire bladder was removed and immediately placed into Krebs Ringer bicarbonate solution (composition, mM: NaCl, 120; NaHCO3, 20; dextrose, 11; KCl, 4.7; CaCl2, 2.5; MgSO4, 1.5; KH2PO4, 1.2; K2EDTA, 0.01, equilibrated with 5% CO2/95% O2 pH 7.4 at 37° C.). Propranolol (0.004 mM) was included in all of the assays to block β-adrenoceptors. The trigonal and dome portions were discarded. Strips 3-5 mm wide and 20 mm long were prepared from the remaining tissue cut in a circular fashion. The mucosal layer was removed. One end was fixed to a stationary glass rod and the other to a Grass FT03 transducer at a basal preload of 1.0 gram. Two parallel platinum electrodes were included in the stationary glass rod to provide field stimulation of 0.05 Hz, 0.5 milli-seconds at 20 volts. […] The maximal efficacy of each compound (expressed as % relative to P1075) is reported. […] Agonist potencies were also expressed as an index relative to P1075. The index was calculated by dividing the ED50 for P1075 by the ED50 for the test agonist in a given tissue. […]

SMILES	melting point [°C]	effect on stimulated twitch of bladder strips [1]
CC(=O)Nc1c(C(O)(C(F)(F)F)C(F)(F)F)cc(Cl)c2ccccc12 [Example 9, N-[4-Chloro-2-(2,2,2-trifluoro-1-hydroxy-1-trifluoromethyl-ethyl)-naphthalen-1-yl]-acetamide]	161 to 162	–
CCC(C)(C)N=C(NC#N)Nc1cccnc1 [Example P1075]	–	completely eliminated the stimulated twitch
O=C(Nc1c(C(O)(C(F)(F)F)C(F)(F)F)ccc2ccccc12)c1ccno1 [Example 41, Isoxazole-5-carboxylic acid [2-(2,2,2-trifluoro-1-hydroxy-1-trifluoromethyl-ethyl)-naphthalen-1-yl]-amide]	162 to 164	–

From patent US20030199578A1, “Naphthalene amides as potassium channel openers” (priority 2002, published 2003)
